Columns and labels:
[1] = system: battery of 44 targets (SafetyScreen44); assay: Off-target selectivity, (radio)ligand binding and enzymatic assays, SafetyScreen44 (Eurofins Cerep); set-up: species or system human; settings: 100 nM; all 44 targets of Table 4 (incl. hERG, PDE3A, PDE4D2, COX1, COX2); no significant responses
Experimental: In vitro pharmacological profiling is increasingly being used earlier in the drug discovery process to identify undesirable off-target activity profiles that could hinder or halt the development of candidate drugs or even lead to market withdrawal if discovered after a drug is approved (Bowes N, et. al., Nature Reviews Drug Discovery 11(12):909-22). Thus, the Off-target selectivity of Compound 1 at 100 nM was tested in (radio)ligand binding and enzymatic assays against a battery of 44 targets (SafetyScreen44™, atEurofins Cerep, France).

[2] = system: C57BL/6 mouse model of alopecia; assay: Topical administration and hair growth in C57BL/6 mouse model of alopecia (telogen phase, clipped dorsal skin); type: in vivo; settings: for animals with visual melanogenesis in peeled skin: end of study; for day of skin colour change from pink to light grey (transition from telogen to anagen phase): after hair growth induction; for adverse effects in relation to general health or body weight: topical twice daily, 5 days/week, 4 weeks, compared to vehicle group
Text: Dorsal hair of C57BL/6 mouse is known to have a time synchronized hair cycle. From about 18-21 days of age (2-3 weeks old) and 47-95 days of age (6-14 weeks old), the dorsal hair are in the telogen/quiescent phase (visually pink skin) [Lee B H, Lee J S, Kim Y C. Hair growth-promoting effects of lavender oil in C57BL/6 mice. Toxicol Res. (2016) 32(2):103-108; Choi H I, Kang B M, Jang J, Hwang S T, Kwon O. Novel effect of sildenafil on hair growth. Biochem Biophys Res Commun. (2018) 505(3):685-691]. C57BL/6 mouse therefore is a well-established model for studying hair growth promotion.
Male and female C57BL/6 mice of 6 to 9 weeks of age in stable telogen phase of hair growth cycle were used (obtained from Vivo Bio Tech Ltd, Telangana, India).
50 μL of a clear solution of respective 0.02%, 0.002% and 0.0002% (w/v) concentrations of Cpd 1 in the corresponding vehicle (PEG-400:EtOH/7:3) (PEG-400: Central Drug House Ltd. Dehli, India; Ethanol: Changshu Hongsheng fine chemicals Co. Ltd. China) and the positive control, 2% solution (female) or 5% (male) (w/v) Minoxidil (Chemieliva, China) in the corresponding vehicle (PEG-400:EtOH/7:3) were topically applied to the clipped area on the dorsal back of the mice. The solutions covered a circular area of approximately 2 cm^2. The treatment regimen was twice daily application for 5 days/week for total of 4 weeks.
The selected animals on day 1 weighted on average 20.05 g±0.17 ranging from 19.8 to 20.2 g. The hair on the dorsal back (approx. 4×4 cm^2) of these animals were clipped without touching the skin of the animal, using an electric clipper, on day 0 before the treatment with Cpd 1 and the hair was collected. The treatment followed by visual analysis for anagen onset, skin color change and appearance of any hair growth were monitored. After completion of the experiment, the dorsal skin of all the animals was removed and visual melanogenesis was reported. The skin sections were then preserved in 10% formalin solution for further histopathology analysis.
Animals were observed during 30 days and the hair growth score was recorded on daily basis. The criteria for scoring of hair growth is as follows: no hair growth, pink skin—score 0; skin colour changes from pink to grey/light grey without visible hair growth—score 0.5 onset of anagen (skin colour changes from grey/light grey to dark grey/black without visible hair growth)—score 1; sparse hair growth—score 1.5; diffuse short hair growth—score 2, moderate hair growth—score 2.5 and dense, normal coat hair—score 3 (Lee B H, Lee J S, Kim Y C. Hair growth-promoting effects of lavender oil in C57BL/6 mice. Toxicol Res. (2016) 32(2):103-108).
Photographs of the animals were captured before the initiation and during the course of the study.
After completion of the experiments all animals were sacrificed by euthanasia (Choi H I, Kang B M, Jang J, Hwang S T, Kwon O. Novel effect of sildenafil on hair growth. Biochem Biophys Res Commun. (2018) 505(3):685-691). The dorsal skin of each animal was then removed by peeling. The peeled skin was spread and checked visually for the induction of melanogenesis indicated by visual blackening on the reverse side of the skin. The skin samples were evenly spread on a pre-labelled glass slide and kept in 10% formalin until further use. Later, the skin samples were embedded in paraffin and sectioned at 5 microns using a microtome and the corresponding slides per animal were prepared. The slides obtained were used for Haematoxylin & Eosin (H&E) staining and in the transverse and longitudinal sections' photomicrographs data, the total number of follicles in the dermis and the sub cutis were determined for each animal. The skin thickness was measured using Image J 1.44 software.
The statistical analyses were performed using GraphPad Prism 9.0.0 software. Statistical significance was determined by One-way or Two-Way ANOVA followed by Tukey's multiple comparison test. […]

CCCOc1ccc(S(=O)(=O)N2CCC(CCO[N+](=O)[O-])(CCO[N+](=O)[O-])CC2)cc1-c1nc2c(CCC)cn(CC)c2c(=O)[nH]1 [Cpd 1, (1-((3-(5-ethyl-4-oxo-7-propyl-4,5-dihydro-3H-pyrrolo[3,2-d]pyrimidin-2-yl)-4-propoxyphenyl)sulfonyl)piperidine-4,4-diyl)bis(ethane-2,1-diyl) dinitrate]
inhibition or stimulation to any of the targets [1]: < 50%
number of follicles in the subcutis layer of the skin and total follicle counts compared to control group ([2]; female mice): considerable higher number
animals with visual melanogenesis in peeled skin ([2]; female mice, 0.0002% (w/v)): 2/5
anagen hair follicles (histology, H&E) compared to vehicle and 2% Minoxidil ([2]; female mice, 0.0002% and 0.002% groups): more
day of skin colour change from pink to light grey (transition from telogen to anagen phase) ([2]; female mice, 0.002% (w/v)): 10 day
hair growth score among treatment groups ([2]; female mice, 0.002% (w/v), at day 30, followed by low dose groups and Minoxidil group): maximal
animals with visual melanogenesis in peeled skin ([2]; female mice, 0.002% (w/v)): 2/5
hair growth (score) compared to vehicle group ([2]; female mice, 0.002% (w/v), from day 26 on): significantly higher
skin thickness compared to vehicle and 2% Minoxidil groups ([2]; female mice, Cpd 1 treatment): increased
area of black skin compared to control groups ([2]; female mice, at day 24): larger
adverse effects in relation to general health or body weight ([2]; female mice): No adverse effects
number of follicles in the subcutis layer of the skin and total follicle counts compared to control group ([2]; male mice): considerable higher number
skin thickness compared to vehicle group ([2]; male mice, 0.002% (w/v)): increased
hair growth (score) compared to vehicle ([2]; male mice, 0.002% (w/v) in PEG-400:EtOH/7:3, from day 5 on): significantly higher
day of skin colour change from pink to light grey (transition from telogen to anagen phase) ([2]; male mice, 0.002% (w/v)): 10 day
hair growth compared to vehicle group ([2]; male mice, 0.002% (w/v), at day 22): significantly higher
animals with visual melanogenesis in peeled skin ([2]; male mice, 0.002% (w/v)): 2/5
hair growth (score) compared to 5% Minoxidil ([2]; male mice, 0.002% (w/v), from day 15): significant increase
anagen hair follicles (histology, H&E) ([2]; male mice, Cpd 1-treated groups): more
adverse effects in relation to general health or body weight ([2]; male mice): No adverse effects
